What was measured:
[1] = diabetes induced (Wolffenbuttel 1998); cited from earlier work
AGE-BSA = biological target: T1, AGE-BSA (Bos taurus, UniProt P02769); assay: In-vitro screening for AGE-breaking activity (AGE-BSA incubated with compound; ELISA / gel permeation chromatography); type: biochemical, bovine; conditions: 10 mM compound, 37° C., 24 hours
T1 construct: Bovine serum albumin (fraction V) (BSA); from tissue; host or cells: bovine serum (fraction V); own knowledge: fraction V is the albumin fraction of plasma/serum
Description: Fluorescence was used as the criteria to monitor the increased AGE formation.
160 mg/ml of protein, bovine serum albumin, BSA and 1.6M glucose sugar were dissolved in phosphate buffered saline, PBS. Sodium azide was added at 0.02% concentration as a preservative. The solution was filtered asceptically through a […] filter and kept for aging at 37° C. for 16 weeks. After 16 weeks the solution was dialyzed against PBS, aliquoted and stored at −20° C.
To determine the AGE breaking activity, 10 μg/ml of the 16 weeks AGE-BSA was incubated with different concentrations of the test compounds at 37° C. for 24 hours and AGE breaking activity of the test compounds by ELISA was determined.
• 1. Different concentrations of 16 weeks AGE-BSA were coated on a microtiter plate as standard. Each concentration is coated in triplicates. • 2. The test samples were coated on microtiter plate at a concentration of 5 ng. to 20 ng per well in triplicates. • 3. The plate was incubated at 37° C. for one hour. • 4. After incubation the plate was washed with PBST (PBS with 0.05% Tween 20). • 5. Blocking with 5% skimmed milk in PBS at 37° C. for one hour was done. • 6. The plate was washed with PBST. • 7. Primary antibody against AGE-BSA was added and the plate is incubated at 37° C. for one hour. • 8. The plate was washed with PBST. • 9. Secondary antibody anti rabbit HRPO (Horse-Radish Per Oxidase) conjugate was added and the plate is incubated at 37° C. for one hour. • 10. The plate was washed with PBST. • 11. Colour development with OPD (orthophenylenediamine dihydrochloride) and hydrogen peroxide was done. • 12. OD (optical density) at (450 nm reading –620 nm reading) was measured after incubation at 37° C. for 15 minutes with Microplate ELISA Reader.
The breaker activity of the compounds were determined by the following formula:
[formula] OD450-620Control=Absorbance of 20 ng AGE-BSA after incubation at 37° C. for 24 hours without test compound. OD450-620Test=Absorbance of 20 ng AGE-BSA after incubation at 37° C. for 24 hours with required concentration of test compound.
Gel Permeation Chromatography based method was used to determine AGE breaking activities of the compounds.
Separation by Gel Permeation Chromatography (GPC) depends on differences in the size, more precisely the hydrodynamic volume, of the proteins in a sample. […] The pores of a column particle are differentially accessible to smaller particles, depending on their size. This volume of the column is called (V1). The total accessible volume (Vt) is the sum of the volume outside the particles (V0) and the volume accessible inside the particles (V1): Vt=V0+Vi Therefore, in a typical Gel Permeation Chromatography (GPC) run, high molecular weight molecules elute at a lower retention time whereas lower molecular weight molecules are retained for longer time. For the purpose of quantification, the area under the curve for the respective molecule is recorded. The same principle has been applied in the in vitro screening of the molecules of instant invention. Highly cross-linked Advanced Glycosylated Endproducts (AGE) were prepared in vitro by incubating Bovine Serum Albumin (BSA) with glucose for a period of 16 weeks. […] The reduction in the area of AGE-BSA incubated in the presence of AGE breaker as compared to that of control AGE BSA (incubated in absence of AGE breaker) gives an estimate of the AGE breaker activity of the drug. In order to check the non-specific activity of the molecule, a similar experiment was repeated with BSA as well. Methodology:
A known concentration of 16-week AGE-BSA was incubated with and without a predetermined concentration of the drug at 37° C. for 24 hours in clean transparent glass test tubes. The solution without drug served as the control and the solution containing the drug was treated as the test sample.
Gel permeation chromatography was performed on equal volumes of control AGE-BSA preparation and solution of AGE-BSA treated with drug. […]

[2] = test system: Maillard reaction in-vitro (BSA, ribose); assay: Test for AGE inhibiting activity (Maillard reaction in-vitro, BSA + ribose, fluorescence); type: biochemical, bovine; conditions: 37° C., 7 days
Description: The following method was used to determine the inhibitory effect of the test compounds on Maillard reaction in-vitro. This method is adopted from U.S. Pat. No. 5,514,676 and European Patent No. 0 339 496 A2.
A solution of Bovine Serum Albumin (BSA), ribose and test compound was prepared in Phosphate Buffer Saline (PBS, pH 7.4) so as to have final concentration of BSA and ribose at 10 mg/ml and 500 mM respectively. Addition of compound was done in aseptic conditions. Sodium azide (0.02%) was also added in this solution in order to prevent microbial growth. A separate tube containing BSA, ribose and sodium azide in the same concentration and buffer as above, but without any test compound, was also incubated as positive control. After incubation at 37° C. for 7 days, 40 micro liter sample from each tube was removed and diluted with PBS to have final concentration of BSA at 1 mg/ml. The fluorescence of all the samples was measured at Excitation Maximum of […] and the Emission Maximum of […] using f-MAX Fluorimeter (Molecular Device, USA). In order to study the effect of test compound on fluorescence, freshly prepared compound solution was mixed with previously incubated positive control (i.e. BSA+ribose), so as to achieve same concentration of all the components as that of test samples.
The percent inhibition of test compound was measured as follows:
[formula] Where F3=Fluorescence of BSA+ribose+compound, F4 is fluorescence of incubated (BSA+ribose)+freshly added test compound.

[3] = Free radical scavenging activity on ABTS radical cation; type: biochemical
Description: This method measures the relative ability of free radical scavenging substances to scavenge the ABTS.^+ i.e. 2,2-Azino-bis-(3-ethyl benzo thiazoline-6-sulfonate) radical cation as compared to a standard amount of standard or free radical scavengers antioxidants. Incubation of ABTS with Peroxidase (metmyoglobin) and hydrogen peroxide results in the production of radical cation ABTS.^+. This species is blue-green in colour and can be detected at 730 nm. Antioxidants or free radical scavengers in the added sample that causes suppression of the color to a degree that is proportional to their concentration.
Preparation of Buffer Solutions: • a. Phosphate Citrate Buffer (pH 5.0): 48.5 ml of 0.1M citric acid with sufficient 0.2M disodium hydrogen phosphate to produce 100 ml. • b. Phosphate Buffer Saline (PBS): Dissolve 40.0 g of NaCl, 1.0 g of KCl, 1.0 g of KH2PO4 and 3.05 g of Na2HPO4 in 1 liter milli-Q water. Dilute 200 ml of above solution to 1 liter with milli-Q water (pH 7.4–7.6).
Preparation of ABTS Stock Solution (2 mM): • 1 tablet (10 mg) was dissolved in phosphate citrate buffer (pH 5.0) to give a 2 mM solution.
Preparation of Horse Radish Peroxidase Working Solution: • 0.1 mg was dissolved in 10 ml of phosphate buffer saline, 1 ml of this solution was diluted to 100 ml with PBS.
Preparation of Hydrogen Peroxide (1.08 mM) Solution: • 12 μl of Hydrogen Peroxide (30% w/v) was diluted to 100 ml with PBS.
Preparation of Drug Solutions: • 0.1 mM of stock solution of the drug was prepared which was serially diluted in PBS to get 0.05 mM, 0.025 mM and 0.0125 mM solutions.
Preparation of ABTS Radical Stock Solution: • To 2 ml of ABTS stock solution, 1 ml of horseradish Peroxidase working solution was added. • As soon as 2 ml of Hydrogen peroxide solution was added to the above solution, blue-green colour of the ABTS radicals appeared. This solution was incubated at 30° C. for 30 min in order to ensure the completion reaction. Make up the volume to 10 ml with PBS.
Preparation of Control Solution: • 900 μl of ABTS radical stock solution were added to an eppendorf tube. To it were added 100 μl of PBS solution.
Preparation of Test Solution: • 900 μl of ABTS radical stock solutions were added to different eppendorf tubes. To it were added 100 μl of various concentrations of drug solution.
Measurement of Absorbance (O.D): • The absorbance of control and test samples was recorded immediately at 730 nm taking PBS as blank.
Calculation: • The percent antioxidant activity was calculated according to the formula: % Antioxidant activity=100−[O.D of test sample/O.D of control×100]

[4] = test system: AGE derived protein cross links; conditions: Vasan et al. Nature 1996; U.S. Pat. No. 5,853,703; cited from earlier work
diabetic rats [5] = conditions: cited from earlier work
[6] = test system: diabetic retinopathy in rat model; conditions: rat model (Hammes 1991, 1994; Roufail 1998); cited from earlier work
diabetic rats [7] = conditions: diabetic rats (Kihara 1991, Miyauchi 1996, Yagihashi 1992); cited from earlier work
old rats = conditions: aging rats (Li et al 1996); cited from earlier work

T1 sequence (P02769 25-607): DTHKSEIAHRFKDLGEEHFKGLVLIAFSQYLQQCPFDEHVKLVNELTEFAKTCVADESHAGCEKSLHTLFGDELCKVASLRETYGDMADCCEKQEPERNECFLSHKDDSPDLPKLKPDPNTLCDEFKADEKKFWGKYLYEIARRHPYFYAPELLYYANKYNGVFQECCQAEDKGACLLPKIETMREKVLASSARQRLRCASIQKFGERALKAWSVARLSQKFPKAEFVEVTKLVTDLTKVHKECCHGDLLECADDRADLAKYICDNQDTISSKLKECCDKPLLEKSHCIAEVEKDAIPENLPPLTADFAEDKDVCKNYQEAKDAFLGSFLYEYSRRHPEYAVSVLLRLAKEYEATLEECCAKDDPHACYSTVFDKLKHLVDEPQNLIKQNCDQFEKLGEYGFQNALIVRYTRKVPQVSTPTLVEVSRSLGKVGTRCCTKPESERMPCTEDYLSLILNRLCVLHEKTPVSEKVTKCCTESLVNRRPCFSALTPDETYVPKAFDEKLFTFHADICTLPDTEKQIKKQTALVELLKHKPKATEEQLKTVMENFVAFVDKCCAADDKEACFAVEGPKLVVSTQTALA

Compound | % Breakage (AGE-BSA) | % Inhibition (Day 7) ([2]; 5 mM compound) | Relative Free Radical Scavenging Activity (%) on ABTS ([3]; 12.5 μM) | Relative Free Radical Scavenging Activity (%) on ABTS ([3]; 25.0 μM) | Relative Free Radical Scavenging Activity (%) on ABTS ([3]; 50.0 μM) | Relative Free Radical Scavenging Activity (%) on ABTS ([3]; 100.0 μM) | also measured
Cc1sc[n+](CC(=O)c2ccccc2)c1C.[Cl-] [ALT-711] |  |  |  |  |  |  | arterial stiffness and arterial compliance [1]: reverse diabetes induced increase of arterial stiffness and improve arterial compliance
O=C(C[n+]1cccc(-c2cc(Cc3ccccc3)nn2-c2ccccc2)c1)c1ccccc1.[Cl-] [Compound 19, 1-(2-Phenyl-2-oxoethyl)-3-[(1-phenyl-3-phenylmethyl)pyrazol-5-yl]pyridinium chloride] | 91.22% | 64.23% | 8.37% | 19.42% | 37.62% | 55.18% | 
O=C(C[n+]1cccc(-c2cc(CCC3CCCCC3)n[nH]2)c1)c1ccccc1.[Cl-] [Compound 22] | 100.00% |  | 22.52% | 29.52% | 30.31% | 31.40% | % Inhibition (Day 7) ([2]; 2.5 mM compound): 51%
O=C(C[n+]1cccc(-c2cc(COc3ccccc3)n[nH]2)c1)c1cccs1.[Cl-] [Compound 24, 1-(2-Thien-2′-yl-2-oxoethyl)-3-[(3-phenoxymethyl)pyrazol-5-yl]pyridinium chloride] | 97.72% | 82.5% | 43.66% | 74.64% | 83.24% | 90.12% | 
Cc1cc(C)n(Cc2cc(-c3ccc[n+](CC(=O)c4ccccc4)c3)n(-c3ccccc3)n2)n1.[Br-] [Compound 26] | 42.37% | 61.45% | 21.18% | 34.22% | 41.66% | 75.27% | 
O=C(C[n+]1cccc(-c2cc(COc3ccccc3)nn2-c2ccccc2)c1)c1ccccc1.[Cl-] [Compound 34, 1-(2-Phenyl-2-oxoethyl)-3-[(1-phenyl-3-phenoxymethyl)pyrazol-5-yl]pyridinium chloride] | 100.0% | 60% | 13.2% | 19.08% | 26.39% | 29.40% | 
O=C(C[n+]1ccsc1)c1ccccc1.[Br-] [N-phenacyl thiazolium bromide] |  |  |  |  |  |  | cleavage of AGE derived protein cross links [4]: cleaves covalent, AGE derived protein cross links
N=C(N)NN [aminoguanidine] |  |  |  |  |  |  | development of diabetic nephropathy (diabetic rats [5]; Yamauchi (1997)): inhibits development of diabetic nephropathy; thickening of glomerular basement membrane (diabetic rats [5]; diabetic rats (Ellis 1991)): ameliorate thickening of glomerular basement membrane; rise in albuminuria (diabetic rats [5]; experimental diabetic rats (Soulis-Liparota, 1991)): attenuate the rise in albuminuria; progression of diabetic retinopathy [6]: retard progression of diabetic retinopathy; nerve conduction velocity (diabetic rats [7]): improve nerve conduction velocity; tissue damage (old rats): significantly prevent tissue damage

Source: patent US7223777B2, “Compounds for the management of aging-related and diabetic vascular complications, process for their preparation, therapeutic and cosmetic uses thereof” (Torrent Pharmaceuticals Ltd., priority 2001, dated 2007)
